Experimental data reported in ChEMBL document CHEMBL3734705, “Synthesis and in vitro cytotoxicity of novel C-12 substituted-14-deoxy-andrographolide derivatives as potent anti-cancer agents” (2015).
Activity calls are given as the source filed them. The rule behind the calls is not given here.

Key:
Format in all cases: functional
[1] = (§1) Cytotoxicity against human OVCAR5 cells assessed as growth inhibition at 10 uM after 48 hrs by SRB assay; conditions: OVCAR-5, 48 h, read-out: GI
OVCAR-5 = experiment: as §1
[2] = Cytotoxicity against human SKOV3 cells after 48 hrs by SRB assay; conditions: SK-OV-3, 48 h; for CC50: read-out: LC50 (the source's name)
[3] = Cytotoxicity against human UACC257 cells after 48 hrs by SRB assay; conditions: UACC-257, 48 h
[4] = Cytotoxicity against human SNB75 cells after 48 hrs by SRB assay; conditions: SNB-75, 48 h; for CC50: read-out: LC50 (the source's name)
[5] = Cytotoxicity against human SF539 cells after 48 hrs by SRB assay; conditions: SF-539, 48 h
[6] = Cytotoxicity against human COLO205 cells after 48 hrs by SRB assay; conditions: COLO 205, 48 h
[7] = Cytotoxicity against human UACC62 cells after 48 hrs by SRB assay; conditions: UACC-62, 48 h
[8] = Cytotoxicity against human RPMI8226 cells after 48 hrs by SRB assay; conditions: RPMI-8226, 48 h
SN12C = experiment: Cytotoxicity against human SN12C cells after 48 hrs by SRB assay
U-251 = experiment: Cytotoxicity against human U251 cells after 48 hrs by SRB assay; conditions: U-251, 48 h
786-0 = experiment: Cytotoxicity against human 786-0 cells after 48 hrs by SRB assay; conditions: 786-0, 48 h
[9] = Cytotoxicity against human Hs578T cells after 48 hrs by SRB assay; conditions: Hs-578T
A498 = experiment: Cytotoxicity against human A498 cells after 48 hrs by SRB assay; conditions: A498, 48 h; for CC50: read-out: LC50 (the source's name)
MDA-MB-231 = experiment: Cytotoxicity against human MDA-MB-231 cells after 48 hrs by SRB assay; conditions: MDA-MB-231, 48 h
IGROV-1 = experiment: Cytotoxicity against human IGROV1 cells assessed as growth inhibition at 10 uM after 48 hrs by SRB assay
Hs-578T = experiment: Cytotoxicity against human Hs578T cells assessed as growth inhibition at 10 uM after 48 hrs by SRB assay
SK-OV-3 = experiment: Cytotoxicity against human SKOV3 cells assessed as growth inhibition at 10 uM after 48 hrs by SRB assay
Malme-3M = experiment: Cytotoxicity against human MALME-3M cells after 48 hrs by SRB assay
SF-295 = experiment: Cytotoxicity against human SF295 cells assessed as growth inhibition at 10 uM after 48 hrs by SRB assay
HOP-92 = experiment: Cytotoxicity against human HOP92 cells assessed as growth inhibition at 10 uM after 48 hrs by SRB assay
HL-60(TB) = experiment: Cytotoxicity against human HL-60(TB) cells assessed as growth inhibition at 10 uM after 48 hrs by SRB assay
HCC 2998 = experiment: Cytotoxicity against human HCC2998 cells assessed as growth inhibition at 10 uM after 48 hrs by SRB assay
RXF 393 = experiment: Cytotoxicity against human RXF393 cells assessed as growth inhibition at 10 uM after 48 hrs by SRB assay

## C=C1CC[C@@H]2[C@](C)(COC(C)=O)[C@H](OC(C)=O)CC[C@@]2(C)[C@@H]1CC(NCc1cccc(Cl)c1)C1=CCOC1=O (mixture of isomers)
[1]
  inhibition of growth at 10 µM: 0.31%

## C=C1CC[C@@H]2[C@](C)(COC(C)=O)[C@H](OC(C)=O)CC[C@@]2(C)[C@@H]1CC(NCc1ccccc1)C1=CCOC1=O (mixture of isomers)
OVCAR-5
  growth inhibition (GI): inactive

## C=C1CC[C@@H]2[C@](C)(COC(C)=O)[C@H](OC(C)=O)CC[C@@]2(C)[C@@H]1CC(Nc1ccc(S(=O)(=O)NC(C)=O)cc1)C1=CCOC1=O (mixture of isomers)
[2]
  GI50: 9.31 µM
  TGI: 18.7 µM
  CC50: 37.4 µM
[3]
  GI50: 6.83 µM
  LC50 (concentration killing 50% of cells): 35.6 µM
  TGI: 16 µM
[4]
  GI50: 3.08 µM
  TGI: 12.7 µM
  CC50: 30.9 µM
[5]
  GI50: 2.39 µM
  LC50: 26.9 µM
  TGI: 7.77 µM
[6]
  GI50: 1.81 µM
  LC50: 20 µM
  TGI: 4.82 µM
[7]
  GI50: 2.59 µM
  LC50: 32 µM
  TGI: 10.8 µM
[8]
  GI50: 1.84 µM
  LC50: > 75 µM
  TGI: 6.53 µM
SN12C
  GI50: 1.78 µM
  LC50 (concentration killing 50% of cells): 39.2 µM
  TGI: 5.4 µM
U-251
  GI50: 3.49 µM
  LC50 (concentration giving 50% net cell kill): 30.8 µM
  TGI: 12 µM
786-0
  GI50: 2.44 µM
  LC50: 26.2 µM
  TGI: 7.98 µM
[9]
  GI50: 8.45 µM
  LC50 (concentration killing 50% of cells): > 75 µM
  TGI: 38.8 µM
A498
  GI50: 10.3 µM
  TGI: 20.1 µM
  CC50: 39.3 µM
MDA-MB-231
  GI50: 3.32 µM
  LC50: 35.1 µM
  TGI: 11.6 µM

## C=C1CC[C@@H]2[C@](C)(COC(C)=O)[C@H](OC(C)=O)CC[C@@]2(C)[C@@H]1C/C=C1/C(=O)OC[C@H]1OC(C)=O
IGROV-1
  growth inhibition (GI): inactive
[2]
  GI50: 19.1 µM
  TGI: 36.3 µM
  CC50: 68.8 µM
[1]
  inhibition of growth at 10 µM: 46.3%
[3]
  GI50: 6.2 µM
  LC50 (concentration killing 50% of cells): 53.2 µM
  TGI: 19.9 µM
[4]
  GI50: 2.83 µM
  TGI: 14.2 µM
  CC50: 37.6 µM
[5]
  GI50: 1.7 µM
  LC50: 6.08 µM
  TGI: 3.22 µM
[6]
  GI50: 3.37 µM
  LC50: > 100 µM
  TGI: 11.4 µM
[7]
  GI50: 3.37 µM
  LC50: 40.7 µM
  TGI: 13.5 µM
Hs-578T
  growth inhibition (GI): inactive
[8]
  GI50: 2.07 µM
  LC50: > 100 µM
  TGI: 7.68 µM
SN12C
  GI50: 3.07 µM
  LC50 (concentration killing 50% of cells): 72 µM
  TGI: 13.3 µM
U-251
  GI50: 6.09 µM
  LC50 (concentration giving 50% net cell kill): 48.6 µM
  TGI: 19.3 µM
786-0
  GI50: 2.02 µM
  LC50: 9.29 µM
  TGI: 4.34 µM
[9]
  GI50: 12.3 µM
  LC50 (concentration killing 50% of cells): > 100 µM
  TGI: 55.4 µM
A498
  GI50: 14.4 µM
  TGI: 27.5 µM
  CC50: 52.6 µM
SK-OV-3
  growth inhibition (GI): inactive
Malme-3M
  GI50: 2.97 µM
  LC50: 29.9 µM
  TGI: 7.95 µM
MDA-MB-231
  GI50: 12.5 µM
  LC50: 58.7 µM
  TGI: 27.1 µM

## C=C1CC[C@@H]2[C@](C)(COC(C)=O)[C@H](OC(C)=O)CC[C@@]2(C)[C@@H]1CC(NCc1ccc(F)cc1)C1=CCOC1=O (mixture of isomers)
[1]
  inhibition of growth at 10 µM: 1%

## C=C1CC[C@@H]2[C@](C)(COC(C)=O)[C@H](OC(C)=O)CC[C@@]2(C)[C@@H]1CC(NCCCCCCCC)C1=CCOC1=O (mixture of isomers)
[1]
  inhibition of growth at 10 µM: 6.77%

## C=C1CC[C@@H]2[C@](C)(CO)[C@H](O)CC[C@@]2(C)[C@@H]1C/C=C1/C(=O)OC[C@H]1O [ANDROGRAPHOLIDE]
IGROV-1
  growth inhibition (GI): inactive
OVCAR-5
  growth inhibition (GI): inactive
SF-295
  growth inhibition (GI): inactive
HOP-92
  growth inhibition (GI): inactive
Hs-578T
  growth inhibition (GI): inactive
HL-60(TB)
  growth inhibition (GI): inactive
HCC 2998
  growth inhibition (GI): inactive
SK-OV-3
  growth inhibition (GI): inactive
RXF 393
  growth inhibition (GI): inactive

## C=C1CC[C@@H]2[C@](C)(COC(C)=O)[C@H](OC(C)=O)CC[C@@]2(C)[C@@H]1CC(Sc1ccccc1)C1=CCOC1=O (mixture of isomers)
[2]
  GI50: 4.44 µM
  TGI: 16.8 µM
  CC50: > 100 µM
[3]
  GI50: 1.91 µM
  LC50 (concentration killing 50% of cells): 7.2 µM
  TGI: 3.71 µM
[4]
  GI50: 1.3 µM
  TGI: 2.9 µM
  CC50: 6.47 µM
[6]
  GI50: 1.49 µM
  LC50: > 100 µM
  TGI: 3.98 µM
[7]
  GI50: 1.3 µM
  LC50: 8.07 µM
  TGI: 3.24 µM
[8]
  GI50: 0.34 µM
  LC50: > 100 µM
  TGI: 2.73 µM
SN12C
  GI50: 2.1 µM
  LC50 (concentration killing 50% of cells): > 100 µM
  TGI: 7.07 µM
U-251
  GI50: 1.56 µM
  LC50 (concentration giving 50% net cell kill): 5.62 µM
  TGI: 2.96 µM
786-0
  GI50: 1.9 µM
  LC50: 6.96 µM
  TGI: 3.64 µM
[9]
  GI50: 4.89 µM
  LC50 (concentration killing 50% of cells): > 100 µM
  TGI: 63.3 µM
A498
  GI50: 2.3 µM
  TGI: 14 µM
  CC50: 59.2 µM
Malme-3M
  GI50: 1.74 µM
  LC50: 7.59 µM
  TGI: 3.63 µM
MDA-MB-231
  GI50: 2.47 µM
  LC50: > 100 µM
  TGI: 6.29 µM

## C=C1CC[C@@H]2[C@](C)(COC(C)=O)[C@H](OC(C)=O)CC[C@@]2(C)[C@@H]1CC(NCCCC)C1=CCOC1=O (mixture of isomers)
[1]
  inhibition of growth at 10 µM: 4.96%
RXF 393
  growth inhibition (GI): inactive

## C=C1CC[C@@H]2[C@](C)(COC(C)=O)[C@H](OC(C)=O)CC[C@@]2(C)[C@@H]1CC(NC1CCCC1)C1=CCOC1=O (stereo not given in full)
OVCAR-5
  growth inhibition (GI): inactive
